Measurements reported in ChEMBL document CHEMBL1146486, “Biologically active compounds from Aphyllophorales (polypore) fungi” (J Nat Prod, 2004).
pIC50: −log10 of the molar value. In brackets after ≈: the same amount, converted by molar mass.

How the values were obtained:
[1] = Inhibition of DNA synthesis in human ECA cells assessed as blockade of thymidine incorporation; assay type: functional, cell-based
[2] = Toxicity in mouse at 225 mg/kg; assay type: organism-based; set-up: dose 225 mg/kg; conditions: in vivo
[3] = test system: Aspergillus niger; test: Antimicrobial activity against Aspergillus niger; assay type: functional
[4] = test system: Amylomyces rouxii; test: Antimicrobial activity against Mucor rouxii; assay type: functional
[5] = test system: Aspergillus flavus; test: Antimicrobial activity against Aspergillus flavus; assay type: functional
[6] = test system: Bacillus cereus; test: Antimicrobial activity against Bacillus cereus; assay type: functional
[7] = test system: Alternaria; test: Antimicrobial activity against Alternaria; assay type: functional
[8] = test system: Clavibacter michiganensis subsp. insidiosus; test: Antimicrobial activity against Corynebacterium insidiosum; assay type: functional
[9] = test system: Micrococcus luteus; test: Antimicrobial activity against Sarcina lutea; assay type: functional
[10] = test system: Kocuria rosea; test: Antimicrobial activity against Micrococcus roseus; assay type: functional
[11] = test system: Arthrobacter citreus; test: Antimicrobial activity against Arthrobacter citreus; assay type: functional
[12] = test system: Bacillus subtilis; test: Antimicrobial activity against Bacillus subtilis; assay type: functional
[13] = test system: CCRF S-180; test: Cytotoxicity against mouse S180 cells; assay type: functional; conditions: read-out: ED50 (the source's name)
[14] = test system: T47D; test: Cytotoxicity against human T47D cells; assay type: functional; conditions: read-out: ED50 (the source's name)
[15] = Cytotoxicity against mouse Meth-A cells; assay type: functional; conditions: read-out: ED50 (the source's name)
[16] = Cytotoxicity against mouse LLC cells; assay type: functional; conditions: Lewis lung carcinoma, read-out: ED50 (the source's name)
[17] = test system: L929; test: Cytotoxicity against mouse L929 cells; assay type: cell-based
[18] = Inhibition of almond beta-glucosidase; set-up: species or system Prunus dulcis
[19] = target: Transient receptor potential cation channel subfamily V member 1 (Homo sapiens, UniProt Q8NER1); test: Inhibition of Vanilloid receptor 1
[20] = test system: L1210; test: Cytotoxicity against mouse L1210 cells; assay type: functional, cell-based
[21] = test system: Liver microsomes; test: Antioxidant activity in rat liver microsomes assessed as inhibition of lipid peroxidation; assay type: functional, Microsome
[22] = target: Protease (Human immunodeficiency virus 1, UniProt Q9YQ12); test: Inhibition of HIV1 protease
[23] = Antiplatelet activity assessed as inhibition of ADP-stimulated human platelet aggregation; assay type: functional
[24] = Antiplatelet activity assessed as inhibition of ADP-stimulated bovine platelet aggregation; assay type: functional; conditions: Bos taurus
[25] = test system: Bacillus anthracis; test: Antimicrobial activity against Bacillus anthracis; assay type: functional
[26] = test system: Staphylococcus aureus; test: Antimicrobial activity against Staphylococcus aureus; assay type: functional
[27] = test system: Micrococcus; test: Antimicrobial activity against Micrococcus flavus; assay type: functional
[28] = Inhibition of lipid peroxidation; assay type: functional
[29] = Inhibition of NF-kappaB by secreted alkaline phosphatase based reporter gene assay
[30] = Inhibition of pig brain phospholipase; set-up: species or system Sus scrofa
[31] = test system: Leuconostoc; test: Antimicrobial activity against Leuconostoc plantarum; assay type: functional
[32] = Cytotoxicity against human KATO III cells; assay type: functional, cell-based, KATO III cell
[33] = test system: HL-60; test: Cytotoxicity against human HL60 cells
[34] = Cytotoxicity against human FL cells; assay type: functional, cell-based
[35] = test system: MDCK; test: Cytotoxicity against MDCK cells; assay type: cell-based; conditions: Canis lupus familiaris
[36] = test system: HeLa; test: Cytotoxicity against human HeLa cells; assay type: functional, cell-based

Sequence of Protease (Q9YQ12 whole entry): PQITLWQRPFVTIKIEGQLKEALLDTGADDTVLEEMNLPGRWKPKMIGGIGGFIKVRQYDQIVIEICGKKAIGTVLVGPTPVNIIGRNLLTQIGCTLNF
Sequence of Transient receptor potential cation channel subfamily V member 1 (Q8NER1 whole entry): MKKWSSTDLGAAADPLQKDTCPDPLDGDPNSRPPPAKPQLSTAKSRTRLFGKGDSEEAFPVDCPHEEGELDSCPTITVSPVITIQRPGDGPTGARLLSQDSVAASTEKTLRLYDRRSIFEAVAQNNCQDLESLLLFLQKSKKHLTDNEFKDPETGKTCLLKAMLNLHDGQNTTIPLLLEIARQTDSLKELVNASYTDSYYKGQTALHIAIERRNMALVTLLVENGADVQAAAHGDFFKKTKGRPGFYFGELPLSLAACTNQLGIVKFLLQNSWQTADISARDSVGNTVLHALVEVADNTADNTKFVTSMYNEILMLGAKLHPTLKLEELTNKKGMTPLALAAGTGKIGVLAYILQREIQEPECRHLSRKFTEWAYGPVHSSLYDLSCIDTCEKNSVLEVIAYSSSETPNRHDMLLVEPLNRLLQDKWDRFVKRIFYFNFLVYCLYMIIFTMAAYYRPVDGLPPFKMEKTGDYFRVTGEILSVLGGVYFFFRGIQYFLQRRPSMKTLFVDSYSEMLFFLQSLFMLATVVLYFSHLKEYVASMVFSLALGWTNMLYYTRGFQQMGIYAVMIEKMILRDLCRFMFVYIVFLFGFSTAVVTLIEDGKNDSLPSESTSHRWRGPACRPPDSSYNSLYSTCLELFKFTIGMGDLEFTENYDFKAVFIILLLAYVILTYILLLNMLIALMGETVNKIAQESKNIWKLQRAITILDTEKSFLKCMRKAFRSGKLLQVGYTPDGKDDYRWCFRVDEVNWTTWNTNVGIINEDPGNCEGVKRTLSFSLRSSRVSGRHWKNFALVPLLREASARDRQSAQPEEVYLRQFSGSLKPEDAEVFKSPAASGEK

SMILES: C=C1C(=O)[C@H](OC(C)=O)/C=C(\C)C(=O)[C@H](O)[C@@H]2[C@@H]1CC2(C)C [NAEMATOLON]
- IC50 [1]: 2 µg/mL (≈ 6.53 µM)
- LD50 [2]: 225 mg/kg

SMILES: C=C1C(=O)[C@H]2O[C@]23C[C@H]2CC(C)(C)[C@H](O)[C@H]2[C@]13C [HYPNOPHILIN]
- MIC [3]: 1 µg/mL (≈ 4.03 µM)
- MIC [4]: 1 µg/mL (≈ 4.03 µM)
- MIC [5]: 1 µg/mL (≈ 4.03 µM)
- MIC [6]: 1 µg/mL (≈ 4.03 µM)

SMILES: Cc1oc(=O)c2c(O)cccc2c1C [OOSPOLACTONE]
- MIC [7]: 12.5 µg/mL (≈ 65.7 µM)

SMILES: CCCCCCCC/C=C\CCCCCCCc1cc(O)cc(O)c1C(=O)O [MERULINIC ACID A]
- MIC [8]: 0.4 µg/mL (≈ 1.02 µM)
- MIC [9]: 0.4 µg/mL (≈ 1.02 µM)
- MIC [10]: 0.4 µg/mL (≈ 1.02 µM)
- MIC [11]: 0.4 µg/mL (≈ 1.02 µM)
- MIC [12]: 0.4 µg/mL (≈ 1.02 µM)

SMILES: C=C(CC[C@@H](C)[C@H]1CC[C@@]2(C)C3=C(CC[C@]12C)[C@@]1(C)CC[C@H](O)C(C)(C)C1CC3=O)C(C)C=O (stereo partly specified) [LUCIALDEHYDE C]
- EC50 [13]: 7.1 µg/mL (≈ 15.1 µM)
- EC50 [14]: 4.7 µg/mL (≈ 10 µM)
- EC50 [15]: 3.8 µg/mL (≈ 8.11 µM)
- EC50 [16]: 10.7 µg/mL (≈ 22.8 µM)

SMILES: C=C1[C@@H](O)[C@H]2O[C@]23C[C@H]2CC(C)(C)[C@H](O)[C@H]2[C@]13C [HYPNOPHILIN 1]
- IC50 [17]: 0.9 µg/mL (≈ 3.6 µM)

SMILES: OC[C@@H]1[C@@H](O)[C@H](O)[C@@H](O)[C@@H]2O[C@H]12 [CYCLOPHELLITOL]
- IC50 [18]: 0.8 µg/mL (≈ 4.54 µM)

SMILES: Cc1cc(O)c(C[C@@H]2[C@@]3(C)CCCC(C)(C)[C@@H]3CC[C@@]2(C)O)c(O)c1 [ALBACONOL]
- pIC50 [19]: 5.30

SMILES: CC(C)[C@@H](C)[C@@H]1O[C@H]1[C@@H](C)[C@H]1CC[C@@]2(O)C3=CC(=O)[C@@H]4C[C@@H](O)[C@@H](O)C[C@]4(C)[C@H]3CC[C@]12C [POLYPORUSTERONE E]
- IC50 [20]: 10 µg/mL (≈ 21.7 µM)

SMILES: C=C1C(=O)[C@H]2O[C@]23C[C@H]2CC(C)(C)C[C@H]2[C@]13C [DESOXYHYPNOPHILIN]
- MIC [3]: 1 µg/mL (≈ 4.3 µM)
- MIC [4]: 1 µg/mL (≈ 4.3 µM)
- MIC [5]: 1 µg/mL (≈ 4.3 µM)
- MIC [6]: 1 µg/mL (≈ 4.3 µM)
- IC50 [17]: 2.4 µg/mL (≈ 10.3 µM)

SMILES: C=C([C@H](O)C[C@H](C)C(C)C)[C@H]1CC[C@@]2(O)C3=CC(=O)[C@@H]4C[C@@H](O)[C@@H](O)C[C@]4(C)[C@H]3CC[C@]12C [POLYPORUSTERONE D]
- IC50 [20]: 10 µg/mL (≈ 21.7 µM)

SMILES: CC(C)[C@@H](C)C[C@@H](O)[C@@H](C)[C@H]1CC[C@@]2(O)C3=CC(=O)[C@@H]4C[C@@H](O)[C@@H](O)C[C@]4(C)[C@H]3CC[C@]12C [POLYPORUSTERONE F]
- IC50 [20]: 10 µg/mL (≈ 21.6 µM)

SMILES: CC(C)C(C)C[C@@H](O)[C@](C)(O)[C@H]1CC[C@@]2(O)C3=CC(=O)[C@@H]4C[C@@H](O)[C@@H](O)C[C@]4(C)[C@H]3CC[C@]12C (stereo partly specified) [POLYPORUSTERONE A]
- IC50 [20]: 10 µg/mL (≈ 20.9 µM)

SMILES: CC1(C)C=Cc2ccc(O[C@@H]3O[C@H](CO)[C@@H](O)[C@H]3O)cc2O1 [STERIN A]
- IC50 [21]: 8 µg/mL (≈ 25.9 µM)

SMILES: C/C(=C\CC[C@@H](C)[C@H]1CC(=O)[C@@]2(C)C3=C(C(=O)C[C@]12C)[C@@]1(C)CC[C@H](O)C(C)(C)[C@@H]1C[C@@H]3O)C(=O)O [GANODERIC ACID BETA]
- pIC50 [22]: 4.70

SMILES: CC1(C)CCC(=O)[C@@H]2[C@@H](C=O)C(C=O)=CC[C@@H]21 [PANUDIAL]
- IC30 [23]: 6 µg/mL (≈ 25.6 µM)
- IC30 [24]: 2.5 µg/mL (≈ 10.7 µM)

SMILES: C=C(C[C@@H](O)[C@@H](C)[C@H]1CC[C@@]2(O)C3=CC(=O)[C@@H]4C[C@@H](O)[C@@H](O)C[C@]4(C)[C@H]3CC[C@]12C)C(C)C [POLYPORUSTERONE G]
- IC50 [20]: 10 µg/mL (≈ 21.7 µM)

SMILES: CC(C)C(C)C1O[C@H]1[C@](C)(O)[C@H]1CC[C@@]2(O)C3=CC(=O)[C@@H]4C[C@@H](O)[C@@H](O)C[C@]4(C)[C@H]3CC[C@]12C (stereo partly specified) [POLYPORUSTERONE C]
- IC50 [20]: 10 µg/mL (≈ 21 µM)

SMILES: CC1(C)C[C@H]2[C@@H]([C@H]1O)[C@@]1(C)[C@@]3(O[C@@H]3C(=O)[C@@]13CO3)[C@H]2O [CORIOLIN]
- MIC [25]: 12.5 µg/mL (≈ 44.6 µM)
- MIC [26]: 12.5 µg/mL (≈ 44.6 µM)
- MIC [27]: 12.5 µg/mL (≈ 44.6 µM)

SMILES: COC1=C(c2ccccc2)C(=O)C(OC)=C(c2ccccc2)C1=O [BETULINAN A]
- IC50 [28]: 0.46 µg/mL (≈ 1.44 µM)

SMILES: CC(C)=C[C@H](O)C1=C[C@@H](O)[C@@H]2O[C@@H]2C1=O [PANEPOXYDONE]
- IC50 [29]: 1.5 µg/mL (≈ 7.14 µM)

SMILES: C=C(C[C@@H](O)[C@](C)(O)[C@H]1CC[C@@]2(O)C3=CC(=O)[C@@H]4C[C@@H](O)[C@@H](O)C[C@]4(C)[C@H]3CC[C@]12C)C(C)C [POLYPORUSTERONE B]
- IC50 [20]: 10 µg/mL (≈ 21 µM)

SMILES: CC(=O)O[C@@H]1[C@H](O[C@H](CO)[C@H](O)[C@@H](O)[C@@H](OC(C)=O)C(=O)O[C@H](C)CCCCCCCCCCCCCCCc2cccc(O)c2C(=O)O)O[C@H](CO)[C@@H](O)[C@@H]1O [CALOPOROSIDE]
- Ki [30]: 10 µg/mL (≈ 12.2 µM)

SMILES: Nc1c(C(=O)O)c2nc3c(CO)cccc3oc-2cc1=O [CINNABARIN]
- MIC [31]: 62.5 µg/mL (≈ 218 µM)
- MIC [6]: 62.5 µg/mL (≈ 218 µM)

SMILES: COc1cc(CCCO[C@@H]2O[C@H](CO)[C@@H](O)[C@H](O)[C@H]2O)cc2cc(-c3ccc4c(c3)OCO4)oc12 [EGONOL GLUCOSIDE]
- IC50 [32]: 24.9 µg/mL (≈ 51 µM)

SMILES: OCCCc1ccc2oc(-c3ccc4c(c3)OCO4)cc2c1 [DEMETHOXYEGONOL]
- IC50 [32]: 27.5 µg/mL (≈ 92.8 µM)

SMILES: COC1=C(c2ccccc2)C(=O)C2=C(C1=O)c1ccccc1CO2 [BETULINAN B]
- IC50 [28]: 2.88 µg/mL (≈ 9.05 µM)

SMILES: COc1cc(CCCO)cc2cc(-c3ccc4c(c3)OCO4)oc12 [EGONOL]
- IC50 [32]: 28.8 µg/mL (≈ 88.2 µM)

SMILES: C=C(C)[C@@H]1CCC2=C(CC[C@]3(C)[C@@H]([C@@H](CCC=C(C)C)C(=O)O)[C@H](O)C[C@@]23C)[C@@]1(C)CCC(=O)O [PORICOIC ACID G]
- GI50 [33]: 0.0393 µM

SMILES: O=Cc1ccc(O)c(O)c1C=O [FOMECIN B]
- IC50 [34]: 17 µg/mL (≈ 102 µM)
- IC50 [35]: 14 µg/mL (≈ 84.3 µM)
- IC50 [36]: 20 µg/mL (≈ 120 µM)

SMILES: CC(O)CCCCCC/C=C\CCCCCCCc1cccc(O)c1C(=O)O (stereo unspecified) [MERULINIC ACID B]
- MIC [8]: 0.4 µg/mL (≈ 1.02 µM)
- MIC [9]: 0.4 µg/mL (≈ 1.02 µM)
- MIC [10]: 0.4 µg/mL (≈ 1.02 µM)
- MIC [11]: 0.4 µg/mL (≈ 1.02 µM)
- MIC [12]: 0.4 µg/mL (≈ 1.02 µM)

SMILES: CCCCCCCC/C=C\CCCCCCCc1cccc(O)c1C(=O)O [MERULINIC ACID C]
- MIC [8]: 0.4 µg/mL (≈ 1.07 µM)
- MIC [9]: 0.4 µg/mL (≈ 1.07 µM)
- MIC [10]: 0.4 µg/mL (≈ 1.07 µM)
- MIC [11]: 0.4 µg/mL (≈ 1.07 µM)
- MIC [12]: 0.4 µg/mL (≈ 1.07 µM)
